Experimental data taken from US20170119776A1, “CHIRAL 2,5-DISUBSTITUTED CYCLOPENTANECARBOXYLIC ACID DERIVATIVES AND USE THEREOF” (BAYER PHARMA AKTIENGESELLSCHAFT, priority 2014, published 2017).

Target: T1, human macrophage elastase (HME/hMMP-12) (Homo sapiens, UniProt P39900)
T1 construct: 0.5 nM HME; purchased R&D Systems 917-MP
Experiment: In vitro HME inhibition test (standard / high-sensitivity), without BSA
Format: biochemical
Conditions: absence of serum albumin (BSA)
Source text: The activity of the compounds according to the invention towards HME (MMP-12) is ascertained in an in vitro inhibition test. The HME-mediated amidolytic cleavage of a suitable peptide substrate leads herein to a fluorescent light increase. The signal intensity of the fluorescent light is directly proportional to the enzyme activity. The active concentration of a test compound at which half of the enzyme is inhibited (50% signal intensity of the fluorescent light) is given as IC50 value.
In a 384 hole microtiter plate, in a test volume of in total 41 μl of the test buffer (0.1 M HEPES pH 7.4, 0.15 M NaCl, 0.03 M CaCl2, 0.004 mM ZnCl2, […], 0.005% Brij®), the enzyme (0.5 nM HME; R&D Systems, 917-MP, autocatalytic activation according to the manufacturer's instructions) and the intramolecularly quenched substrate [5 μM Mca-Pro-Leu-Gly-Leu-Glu-Glu-Ala-Dap(Dnp)-NH2; Bachem, M-2670] are incubated in the absence and presence of the test substance (as solution in DMSO) for two hours at 37° C. The fluorescent light intensity of the test batches is measured (excitation 323 nm, emission 393 nm). The IC50 values are ascertained by plotting the fluorescent light intensity against the active ingredient concentration.
If subnanomolar IC values are produced for high potent test substances in the standard HME inhibition test described above, then a modified test is used for their more precise determination. Here, a ten-fold lower enzyme concentration is used (final concentration e.g. 0.05 nM), in order to achieve an increased sensitivity of the test. The incubation time of the test is accordingly chosen to be longer (e.g. 16 hours).
Table 1 below gives the IC50 values from these HME inhibition tests for the working examples of the present invention and also for two structurally related comparison compounds from the prior art (as racemate or separated enantiomers)→(sometimes as average values from several independent individual determinations and rounded to two significant places). The IC50 values were determined for racemates and enantiomers from differently generated DMSO stock solutions. Whereas an automatically created DMSO stock solution from the internal substance logistics was used for racemates by means of a standard method, for enantiomers and for a more precise direct comparison of the enantiomers with one another, in each case a freshly produced, manually prepared DMSO stock solution was used.

T1 sequence (P39900 106-470): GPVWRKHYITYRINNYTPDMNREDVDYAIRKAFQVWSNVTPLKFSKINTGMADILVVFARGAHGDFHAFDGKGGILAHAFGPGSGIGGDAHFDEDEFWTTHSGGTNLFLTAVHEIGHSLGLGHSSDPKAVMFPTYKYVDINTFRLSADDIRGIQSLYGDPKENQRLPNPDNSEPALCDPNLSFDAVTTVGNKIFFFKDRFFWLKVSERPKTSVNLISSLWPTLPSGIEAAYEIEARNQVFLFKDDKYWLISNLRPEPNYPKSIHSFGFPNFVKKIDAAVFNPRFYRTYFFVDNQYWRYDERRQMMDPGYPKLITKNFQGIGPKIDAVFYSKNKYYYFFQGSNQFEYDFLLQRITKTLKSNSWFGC

| Compound | IC50 [nM] |
| --- | --- |
| O=C(O)[C@@H]1[C@@H](Cn2nnc3ccccc3c2=O)CC[C@H]1C(=O)c1ccc(-c2ccc(Cl)cc2)cc1 (single isomer, unassigned; enantiomer 1) [Comparative Example A-2, (1RS,2RS,5SR)-2-[(4′-chlorobiphenyl-4-yl)carbonyl]-5-[(4-oxo-1,2,3-benzotriazin-3(4H)-yl)methyl]cyclopentanecarboxylic acid (enantiomer 1)] | 66 |
| CCCCCOc1ccc(C(=O)CC(CCn2nnc3ccccc3c2=O)C(=O)O)cc1 (single isomer, unassigned; enantiomer 2) [Comparative Example B-3, (−)-4-Oxo-2-[2-(4-oxo-1,2,3-benzotriazin-3(4H)-yl)ethyl]-4-[4-(pentyloxy)phenyl]butanoic acid (enantiomer 2)] | 160 |
| O=C(O)[C@@H]1[C@@H](Cn2nnc3ccccc3c2=O)CC[C@H]1C(=O)c1ccc(OCc2ccccc2)cc1 [Example 3, (−)-(1R,2R,5S)-2-[4-(Benzyloxy)benzoyl]-5-[(4-oxo-1,2,3-benzotriazin-3(4H)-yl)methyl]cyclopentanecarboxylic acid] | 14 |
